According to patent US20040138462A1, “Aminoalcohol derivatives” (priority 2001, published 2004):

Legend:
[1] = system: increase in intravesical pressure induced by carbachol in anesthetized dog; assay: Effect on the increase in intravesical pressure induced by carbachol in anesthetized dog; format: in vivo, Beagle dogs; details: intraduodenal administration
Method: Effect on the increase in intravesical pressure induced by carbachol in anesthetized dog
Female Beagle dogs weighing 8.0-15.0 kg were fasted for 24 hours and maintained under halothane anesthesia. A 12F Foley catheter was lubricated with water soluble jelly, inserted into the urethral orifice and advanced approximately 10 cm until the balloon tip was placed well inside the bladder. The balloon was then inflated with 5 ml of room air and catheter slowly withdrawn just part the first resistance that is felt at the bladder neck. Urine was completely drained out through the catheter, and 30 ml of biological saline was infused. The catheter was connected to pressure transducer, and intravesical pressure was continuously recorded. Intraduodenal administration of test compound (I) inhibited carbachol (1.8 μg/kg)-induced increase in intravesical pressure (IVP).

melting point | SMILES | % inhibition of carbachol-induced increase in IVP ([1]; 0.32 mg/kg, female Beagle dogs under halothane anesthesia, carbachol 1.8 μg/kg) | carbachol (1.8 μg/kg)-induced increase in intravesical pressure (IVP) ([1]; anesthetized female Beagle dogs)
198 to 200 °C | CCOC(=O)COc1ccc(S(=O)(=O)c2ccc(CCNC[C@H](O)c3cccc(Cl)c3)cc2)cc1.Cl |  | 
 | O=S(=O)(c1ccccc1)c1ccc(C[C@@H](CO)NC[C@H](O)COc2ccccc2)cc1 [Test Compound (1), (2S)-2-[((2S)-2-Hydroxy-3-phenoxypropyl)amino]-3-[4-(phenylsulfonyl)phenyl]-1-propanol] | 30% | inhibited
